These results are taken from patent publication US9580430B2, “9H-pyrimido[4,5-B]indoles and related analogs as BET bromodomain inhibitors” (THE REGENTS OF THE UNIVERSITY OF MICHIGAN, priority 2014, dated 2017).

In data set [1] the test system is MYC signature. The data set is described as follows: Gene expression array, GSEA of MYC signature, 22RV1. It is filed as cell-based. To be noted: 22RV1 after JQ1 treatment. As to the method: (§1) Cells treated with only vehicle or 10 nM DHT served as controls. […] Expression profiling was performed using the Agilent Whole Human Genome Oligo Microarray (SantaClara, Calif.) according to the manufacturer's protocol. All samples were run in technical duplicates or quadruplets against control. Over- and under-expressed gene sets were generated by filtering to include only 2-fold average over- or underexpression (Log ratio with p<0.001) in all hybridizations.

The next data set deals with AR-positive cells. The data set is described as follows: Long-term colony formation assay. To be noted: 100 nM, 12 days, FIG. 3. It is filed as cell-based. The method, then:
(§2) Cells were seeded in 96-well plates at 2000-10,000 cells/well (optimum density for growth) in a total volume of 100 μl media containing 10% FBS. Serially diluted compounds in 100 μl media were added to the cells 12 h later. Following 96 h. incubation, cell viability was assessed by Cell-Titer GLO (Promega). The values were normalized and IC50 was calculated using GraphPad Prism software. […] After 12 days cells were fixed with methanol, stained with crystal violet and photographed. For colorimetric assays, the stained wells were treated with 500 μl 10% acetic acid and the absorbance was measured at 560 nm using a spectrophotometer.

The next data set has as its system VCaP or LNCaP cells. Nature of the data set: Matrigel invasion assay, VCaP or LNCaP cells. The format is cell-based. The conditions noted are these: 500 nM. As to the method:
Medium containing 10% FBS in the lower chamber served as chemoattractant. […] After 48 h, the non-invading cells and EC matrix were gently removed with a cotton swab and invasive cells located on the lower side of the chamber were stained with crystal violet, air dried, photographed and counted.

Data set [2] relates to MYC signature. Nature of the data set: Gene expression array, GSEA of MYC signature, LNCaP. The format is cell-based. The conditions noted are these: LNCaP after JQ1 treatment. The method, then:
as §1

Data set [3] deals with RWPE and PC3 cells overexpressing ERG. The data set is described as follows: Matrigel invasion assay, RWPE and PC3 cells overexpressing ERG. The format is cell-based. The conditions noted are these: 500 nM. As to the method:
Medium containing 10% FBS in the lower chamber served as chemoattractant. […] For colorimetric assays, the inserts were treated with 150 μl of 10% acetic acid and the absorbance measured at 560 nm using a spectrophotometer (GE Healthcare).

The nature of data set [4]: Prostate histology and hormone measurement in mice. The format is in vivo. The method, then: Highly hormone responsive seminal vesicles attached to prostate were harvested from mice after four weeks of injection. Prostate were fixed in formalin solution and processed for sectioning. Standard H&E staining was achieved on the formalin fixed sections and were used to image the different lobes of the gland. To determine the testosterone levels, blood samples were collected by cardiac puncture from mice anesthetized with isoflurane. The serum was separated from the blood and stored at −80° C. until assayed. Serum testosterone levels were measured by the Ligand Assay at University of Michigan-ULAM Pathology Cores for Animal Research.

Data set [5] has as its system VCaP prostate cancer cells. The data set is described as follows: Cell growth inhibition, VCaP prostate cancer cells (Cell-Titer GLO). It is filed as cell-based. To be noted: 8 days; FIG. 22. The method, then:
For prostate cancer cell lines, VCaP prostate cancer cells were grown in DMEM with Glutamax (Gibco) supplemented with 10% FBS (Invitrogen) in 5% CO2 cell culture incubator. All cell lines were tested and found to be free of mycoplasma contamination. Cells were seeded in 96-well plates at 2,000-10,000 cells per well (optimum density for growth) in a total volume of […] media containing 10% FBS. Serially diluted compounds in […] media were added to the cells 12 h later. […] The values were normalized and IC50 was calculated using GraphPad Prism software.
as §2

For another data set, the system named is AR. Nature of the data set: ChIP-seq of AR in DHT-stimulated VCaP cells. The format is cell-based. The conditions noted are these: DHT 10 nM plus JQ1 500 nM, MDV3100 10 μM or Bicalutamide 25 μM, FIG. 17. As to the method: (§3) The ChIP assays for BRD2, BRD3, BRD4, AR, RNA PolII, ERG and H3K27ac were performed using HighCell ChIP kit (Diagenode) according to manufacturer's protocol. […] Next, cells were cross-linked for 10 min. with 1% formaldehyde. […] Chromatin equivalent to 5×10^6 cells were used for ChIP using different antibodies. ChIP DNA was isolated (IPure Kit, Diagenode) from samples by incubation with the antibody at 4° C. overnight followed by wash and reversal of cross-linking. The ChIP-seq sample preparation for sequencing was performed according to the manufacturer's instructions (Illumina). […] A single A-base was added to fragment ends by Klenow fragment (3′ to 5′ exo minus; NEB) followed by ligation of Illumina adaptors (Quick ligase, NEB). The adaptor-modified DNA fragments were enriched by PCR using the Illumina Barcode primers and Phusion DNA polymerase (NEB). PCR products were size selected using 3% NuSieve agarose gels (Lonza) followed by gel extraction using QIAEX II reagents (QIAGEN). Libraries were quantified with the Bioanalyzer 2100 (Agilent) and sequenced on the Illumina HiSeq 2000 Sequencer (100 nucleotide read length).
For enrichment plots shown in FIGS. 17, 19 and 20, identified peaks for each sample are centered by peak summit and average coverage per million was counted within 1500 bp relative to the peak center.

A further data set has as its system BRD2/3/4. The data set is described as follows: ChIP-seq of BRD2/3/4 in VCaP cells. It is filed as cell-based. To be noted: 500 nM, 12 h. The method, then:
as §3

The next data set relates to VCaP xenograft model. The data set is described as follows: Spontaneous metastasis in the VCaP xenograft model (human Alu qPCR). To be noted: femur, liver and spleen; JQ1 50 mg/kg, MDV3100 10 mg/kg. The format is in vivo, mice. As to the method:
Four week-old male SCID C.B17 mice were procured from a breeding colony at University of Michigan. All procedures involving mice were approved by the University Committee on Use and Care of Animals (UCUCA) at the University of Michigan and conform to all regulatory standards. Mice were anesthetized using 2% Isoflurane (inhalation) and 2×10^6 VCaP prostate cancer cells suspended in 100 μl of PBS with 50% Matrigel (BD Biosciences) were implanted subcutaneously into the dorsal flank on both sides of the mice. […] Growth in tumor volume was recorded using digital calipers and tumor volumes were estimated using the formula (π/6) (L×W^2), where L=length of tumor and W=width. Loss of body weight during the course of the study was also monitored. At the end of the studies mice were sacrificed and tumors extracted and weighed. Additionally, femur bone marrow, liver and spleen were harvested to examine spontaneous metastasis by detecting human-Alu sequence. […] All procedures involving mice were approved by the University Committee on Use and Care of Animals (UCUCA) at the University of Michigan and conform to all regulatory standards.

[6] abbreviates: gene set SCHLOSSER_MYC_AND_SERUM_RESPONSE_SYNERGY.
The mark [7] stands for this setting: gene set SCHLOSSER_MYC_TARGETS_AND_SERUM_RESPONSE_UP.
[8] abbreviates: gene set SCHUHMACHER_MYC_TARGETS_UP.

Consider `Cc1sc2c(c1C)C(c1ccc(Cl)cc1)=N[C@@H](CC(=O)OC(C)(C)C)c1nnc(C)n1-2` [JQ1], for which the NES is reported as −1.712 in the data set on MYC signature [1] (gene set MYC_UP.V1_UP); −1.521 with MYC signature [1] (setting [6]); 1.353 in the data set with MYC signature [1] (setting [7]); −1.851 with MYC signature [1] (setting [8]); −2.068 in the data set on MYC signature [2] (gene set MYC_UP.V1_UP); −1.751 in the data set with MYC signature [2] (setting [6]). Further, the figures for the NES in the data set on MYC signature [2] (setting [7]) and in the data set on MYC signature [2] (setting [8]) were −1.957 and −2.403, respectively. Moreover, the long term colony-formation entry in the data set on AR-positive cells is listed as “severely inhibited”. Also, the cell invasion entry in the data set on VCaP or LNCaP cells is “inhibited invasion”. Further, in data set [3], the ERG-mediated invasion entry is recorded as “attenuation of ERG-mediated invasion”. The physiologic androgen-regulated processes result in data set [4] is “No effect on physiologic androgen-regulated processes”. The testes size entry in data set [4] is reported as “reduced testes size”. In addition, in data set [5], the “VCaP cell viability in vitro” value was “suppression of cell growth at sub-micromolar concentrations”. Further, the “recruitment of AR to target loci” value in the data set on AR was “block AR recruitment to a level almost equivalent to MDV3100”. Also, the “recruitment of BRD2/3/4 to the chromatin” value in the data set with BRD2/3/4 was “reduction in the recruitment”. In the data set on VCaP xenograft model, the spontaneous metastasis result was “no evidence of metastasis”.
